{
  "source": "paper PMC6213599",
  "about": "(Marine Drugs, 2018)",
  "key": {"[1]": {"test_system": "influenza virus A/Puerto Rico/8/1934 (H1N1) in MDCK cells"}, "NA [2]": {"test_system": "NA", "conditions": "no reference given; cited from earlier work", "description": "(§1) To determine the mode of action of the NA-inhibitory peptide, a Lineweaver–Burk kinetic model was used to explore the relationship between the reaction rate and the substrate concentration."}, "[3]": {"target": "T1, Influenza virus H1N1 neuraminidase (NA) (Influenza A virus, UniProt P03468)", "T1 sequence (P03468 whole entry, looked up)": "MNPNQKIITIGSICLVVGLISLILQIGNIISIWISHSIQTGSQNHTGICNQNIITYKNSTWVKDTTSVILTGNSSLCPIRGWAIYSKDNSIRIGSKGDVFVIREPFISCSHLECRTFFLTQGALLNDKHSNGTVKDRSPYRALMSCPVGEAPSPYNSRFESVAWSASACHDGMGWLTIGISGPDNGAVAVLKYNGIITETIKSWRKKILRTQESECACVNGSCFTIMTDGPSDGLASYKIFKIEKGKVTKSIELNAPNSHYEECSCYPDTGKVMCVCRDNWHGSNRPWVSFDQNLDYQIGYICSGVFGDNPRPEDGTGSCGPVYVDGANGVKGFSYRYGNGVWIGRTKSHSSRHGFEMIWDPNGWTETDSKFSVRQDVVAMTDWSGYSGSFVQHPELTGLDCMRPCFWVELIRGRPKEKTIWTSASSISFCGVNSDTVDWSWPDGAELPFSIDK", "type": "biochemical", "conditions": "relative to hydrolysates (<5000 Da), from the IC50 values"}, "MDCK cells": {"test_system": "MDCK cells", "test": "Cytotoxicity test by MTT assay", "type": "cell-based, canine", "conditions": "48 h", "procedure": "The MTT assay was used to determine the effect of the peptide on the viability of MDCK cells. The 96-well plates were used to culture the MDCK cells. After adding 10 μL of PBS containing MTT (0.5 mg/mL) into each well, the solution was incubated at 37 °C for 4 h. After removing the supernatant, 200 μL of DMSO was added into each well. The optical density (OD) for each well was determined at 570 nm. The IC50 was calculated as the concentration of the sample at which the number of viable cells was decreased to 50% of that in the cell control."}, "[4]": {"test_system": "influenza virus H1N1 (HA titer, chicken red blood cells)", "set-up": "species or system influenza A H1N1 virus"}, "[5]": {"test_system": "pepsin, chymotrypsin, trypsin", "test": "Simulated in vitro gastrointestinal digestion, NA inhibition read-out", "type": "in vitro ADME", "conditions": "10 mg/mL, pepsin pH 2.0, 37 °C, 2 h, then chymotrypsin pH 7.5, 37 °C, 1 h, three replicates", "procedure": "Simulated digestion assay was performed according to the previous method with slight modifications. The NA-inhibitory peptide was dissolved in deionized water to prepare 10 mg/mL solution. The pH was adjusted to 2.0 with 1 mol/L HCl and then pepsin (2.86% of the substrate, dry basis) was added. Digestion was performed at 37 °C for 2 h, followed by boiling for 10 min to stop the enzyme activation. Subsequently, the pH was adjusted to 7.5 with 0.2 mol/L NaOH. After adding chymotrypsin (4.00% of substrate, dry basis), the reaction was carried out at 37 °C for 1 h. The sample was submerged in a 95 °C water bath for 10 min to terminate the enzymatic digestion and cooled on ice to room temperature. Then, trypsin (4.00% of substrate, dry basis) was added, and the above steps were repeated. Afterwards, the digested mixtures were centrifuged at 10,000× g for 10 min to obtain the digestive juices. The NA inhibition assay in digestive juices was detected as described above."}, "[6]": {"target": "T1, Influenza virus H1N1 neuraminidase (NA)", "test": "NA inhibition mode, Lineweaver–Burk kinetics", "type": "biochemical", "conditions": "Lineweaver–Burk plot", "procedure": "The mode of NA inhibition was determined according to the previous method with slight modifications. Various concentrations of MUNANA (1.25, 2.5, 5, 10 and 20 μM) were incubated with NA in the absence or presence (0–2.5 mg/mL) of the peptide P at 37 °C. The inhibition kinetics of NA in the presence of peptide P was determined based on the Lineweaver–Burk plot. The inhibitor constant Ki was calculated by plotting 1/Vmax versus the concentrations of peptide P."}, "[7]": {"test_system": "influenza virus A/Puerto Rico/8/1934 (H1N1) in MDCK cells", "remark": "listed apart in the source"}, "ACE": {"test_system": "ACE", "conditions": "cited from earlier work"}, "NA [8]": {"test_system": "NA", "conditions": "cited from earlier work", "description": "as §1"}, "[9]": {"conditions": "influenza virus A/Puerto Rico/8/1934 in MDCK cells, 1 h, 250 μg/mL"}},
  "note": "Where two headings read alike, the source gives them in different places. Non-standard residues stand in square brackets, D forms with d. Residues, ends and D or L forms follow the SMILES beside them. Hyp = O=C(O)[C@@H]1C[C@@H](O)CN1",
  "data": [
    {"compound": "NC(=O)c1ncn([C@@H]2O[C@H](CO)[C@@H](O)[C@H]2O)n1", "note": "[ribavirin, Ribavirin, reference compound]", "values": [
      {"measurement": "Inhibition ratio, positive control", "setting": "[1]; positive control in the time-of-addition experiment", "value": 75, "unit": "%"}
    ]},
    {"compound": "CCOC(=O)C1=C[C@@H](OC(CC)CC)[C@H](NC(C)=O)[C@@H](N)C1", "note": "[oseltamivir]", "values": [
      {"measurement": "Mode of NA inhibition", "setting": "NA [2]", "value": "competitive"}
    ]},
    {"compound": "CC(C)C[C@H](NC(=O)CNC(=O)[C@H](CCC(N)=O)NC(=O)[C@@H]1CCCN1C(=O)CNC(=O)[C@@H]1C[C@@H](O)CN1C(=O)[C@@H](NC(=O)CNC(=O)[C@@H]1C[C@@H](O)CN1C(=O)[C@@H]1CCCN1C(=O)CNC(=O)[C@H](C)NC(=O)[C@@H](NC(=O)CNC(=O)[C@H](C)NC(=O)[C@H](CCC(=O)O)NC(=O)CNC(=O)[C@H](CO)NC(=O)[C@@H]1CCCN1C(=O)CNC(=O)[C@H](CCCCN)NC(=O)[C@H](CCC(=O)O)NC(=O)CNC(=O)[C@@H]1C[C@@H](O)CN1)[C@@H](C)O)[C@@H](C)O)C(=O)O", "note": "[peptide P] (H-[Hyp]GEKGPSGEAGTAGP[Hyp]GT[Hyp]GPQGL-OH; N-terminus and C-terminus assumed)", "values": [
      {"measurement": "Purification Fold", "setting": "[3]", "value": 7.19},
      {"measurement": "Inhibition rate, added after the infection (after-adsorption)", "setting": "[1]", "value": "approximately 31.5%"},
      {"measurement": "Inhibition ratio, during viral adsorption", "setting": "[1]; [9]", "value": 58, "unit": "%"},
      {"measurement": "Inhibition ratio, pretreatment (added before viral adsorption)", "setting": "[1]; [9]", "value": 73, "unit": "%"},
      {"measurement": "Cytotoxicity in MDCK cells", "setting": "MDCK cells; concentration of 250 μg/mL or less (p > 0.05)", "value": "no significant cytotoxicity"},
      {"measurement": "Viability of MDCK cells", "setting": "MDCK cells; concentrations over 250 μg/mL (p < 0.05)", "value": "significantly reduced the viability"},
      {"measurement": "HA titer of the virus", "setting": "[4]", "value": "significantly reduce the virus titer"},
      {"measurement": "NA-inhibitory activity after simulated in vitro gastrointestinal digestion", "setting": "[5]", "value": "significantly decreased"},
      {"measurement": "NA-inhibitory activity after simulated in vitro gastrointestinal digestion", "setting": "[5]; listed as NA-inhibitory peptide", "value": "almost inactivated"},
      {"measurement": "Mode of NA inhibition", "setting": "[6]", "value": "competitive"},
      {"measurement": "Effect on cytopathic effect (CPE)", "setting": "[7]", "value": "significantly reduced the cytopathic effect"},
      {"measurement": "EC50 against H1N1", "setting": "[7]; influenza virus A/Puerto Rico/8/1934 in MDCK cells, 48 h", "value": "471 ± 12", "unit": "µg/mL"},
      {"measurement": "Inhibition of H1N1", "setting": "[7]; influenza virus A/Puerto Rico/8/1934 in MDCK cells, 48 h, 250 μg/mL", "value": 42, "unit": "%"}
    ]},
    {"compound": "Trp-Leu", "values": [
      {"measurement": "ACE inhibitory activity after simulated digestion", "setting": "ACE", "value": "completely preserved"}
    ]},
    {"compound": "2-hydroxy-3-methyl-3-butenyl alkyl [HMB]", "values": [
      {"measurement": "Mode of NA inhibition", "setting": "NA [8]", "value": "non-competitive"},
      {"measurement": "IC50", "setting": "NA [8]; read-out: IC50 for NA", "value": 12.3, "unit": "µM"},
      {"measurement": "Ki", "setting": "NA [8]; read-out: Ki for NA", "value": "14 ± 1.5", "unit": "µM"}
    ]}
  ]
}
